Measured values: BindingDB's records for doi:10.1016/j.bioorg.2016.11.011 (Tehran University of Medical Sciences, 2017)
Several values for one entry are separate records, joined by “and”; a condition that tells them apart may be missing. Identical values can stand only once.

Assays:
[1] = target: Carboxylic ester hydrolase (Equus caballus, UniProt Q9N1N9); assay: AChE and BChE Inhibition Assay; details: pH 8; 25 °C
Protocol: (§1) In vitro anti-AChE activity was performed based on the modified Ellman's method [Ellman et al., Biochem. Pharmacol., […]]. […] Each well contained 50 μL potassium phosphate buffer (KH2PO4/K2HPO4, 0.1 M, pH 8), 25 μL prepared sample as described above, 25 μL enzyme with final concentration of 0.22 U/mL in buffer. They were preincubated for 15 min at room temperature, and then […] DTNB (3 mM in buffer) was added. […] The IC50 values were determined graphically from inhibition curves (log inhibitor concentration vs. percent of inhibition). A control experiment was performed under the same conditions without inhibitor and the blank contained buffer, water, DTNB, and substrate. The described method was also used for BChE inhibition assay.

[2] = target: Acetylcholinesterase (Electrophorus electricus, UniProt O42275); assay: AChE and BChE Inhibition Assay; details: pH 8; 25 °C
Protocol: as §1

Chain of Carboxylic ester hydrolase (Q9N1N9 whole entry): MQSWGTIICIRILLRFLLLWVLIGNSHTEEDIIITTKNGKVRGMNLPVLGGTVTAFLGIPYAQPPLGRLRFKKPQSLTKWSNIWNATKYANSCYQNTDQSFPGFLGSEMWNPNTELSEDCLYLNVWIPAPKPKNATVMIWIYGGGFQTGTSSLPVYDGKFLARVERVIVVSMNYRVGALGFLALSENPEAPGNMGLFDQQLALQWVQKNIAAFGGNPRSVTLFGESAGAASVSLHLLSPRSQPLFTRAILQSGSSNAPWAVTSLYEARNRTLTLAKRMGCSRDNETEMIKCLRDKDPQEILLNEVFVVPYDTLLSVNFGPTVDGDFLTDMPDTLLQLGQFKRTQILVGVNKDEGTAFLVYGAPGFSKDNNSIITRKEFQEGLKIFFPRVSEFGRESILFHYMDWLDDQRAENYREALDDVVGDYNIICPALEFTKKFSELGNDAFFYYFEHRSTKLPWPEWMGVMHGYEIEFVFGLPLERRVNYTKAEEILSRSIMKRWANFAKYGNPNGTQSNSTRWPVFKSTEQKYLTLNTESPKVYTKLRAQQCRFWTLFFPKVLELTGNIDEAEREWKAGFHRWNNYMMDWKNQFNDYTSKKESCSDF
Chain of Acetylcholinesterase (O42275 whole entry): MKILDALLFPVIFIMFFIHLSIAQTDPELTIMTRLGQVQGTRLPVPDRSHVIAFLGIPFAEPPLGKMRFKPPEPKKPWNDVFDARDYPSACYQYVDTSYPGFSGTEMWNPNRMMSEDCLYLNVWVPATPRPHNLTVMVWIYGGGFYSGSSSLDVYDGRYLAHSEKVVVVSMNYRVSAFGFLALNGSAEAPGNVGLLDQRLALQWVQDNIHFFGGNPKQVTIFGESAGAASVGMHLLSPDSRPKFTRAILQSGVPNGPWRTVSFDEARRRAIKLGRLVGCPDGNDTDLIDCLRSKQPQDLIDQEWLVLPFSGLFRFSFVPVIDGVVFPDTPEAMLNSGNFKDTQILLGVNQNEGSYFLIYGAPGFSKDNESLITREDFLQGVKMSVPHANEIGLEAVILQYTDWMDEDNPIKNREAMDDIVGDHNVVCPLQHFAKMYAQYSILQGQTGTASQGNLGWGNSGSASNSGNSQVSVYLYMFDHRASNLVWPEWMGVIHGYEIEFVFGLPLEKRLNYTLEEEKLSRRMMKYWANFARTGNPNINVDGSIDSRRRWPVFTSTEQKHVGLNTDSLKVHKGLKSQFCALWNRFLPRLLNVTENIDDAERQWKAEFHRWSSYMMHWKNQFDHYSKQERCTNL

## O=C(NCc1cnnn1Cc1ccccc1Br)c1cc2ccccc2oc1=O [N-((1-(2-bromobenzyl)-1H-1,2,3-triazol-5-yl)methyl)-2-oxo-2H-chromene-3-carboxamide (6j)]
[1]
  IC50: 31 µM and > 100 µM

## O=C(NCc1cnnn1Cc1ccccc1Cl)c1cc2ccccc2oc1=O [N-((1-(2-chlorobenzyl)-1H-1,2,3-triazol-5-yl)methyl)-2-oxo-2H-chromene-3-carboxamide (6f)]
[1]
  IC50: > 100 µM
[2]
  IC50: 34 µM

## Cc1ccc(Cn2nncc2CNC(=O)c2cc3ccccc3oc2=O)cc1 [N-((1-(4-methylbenzyl)-1H-1,2,3-triazol-5-yl)methyl)-2-oxo-2H-chromene-3-carboxamide (6c)]
[1]
  IC50: > 100 µM
[2]
  IC50: > 100 µM

## O=C(NCc1cnnn1Cc1ccccc1)c1cc2ccccc2oc1=O [N-((1-benzyl-1H-1,2,3-triazol-5-yl)methyl)-2-oxo-2Hchromene-3-carboxamide (6a)]
[1]
  IC50: > 100 µM
[2]
  IC50: > 100 µM

## COc1cccc2cc(C(=O)NCc3cn(Cc4ccccc4Cl)nn3)c(=O)oc12 [N-((1-(2-chlorobenzyl)-1H-1,2,3-triazol-4-yl)methyl)-8-methoxy-2-oxo-2H-chromene-3-carboxamide (6m)]
[1]
  IC50: 96.1 µM
[2]
  IC50: 15.4 µM

## O=C(NCc1cnnn1Cc1cccc(Cl)c1Cl)c1cc2ccccc2oc1=O [N-((1-(2,3-dichlorobenzyl)-1H-1,2,3-triazol-5-yl)methyl)-2-oxo-2H-chromene-3-carboxamide (6h)]
[1]
  IC50: 67 µM
[2]
  IC50: 20.2 µM

## Cc1ccccc1Cn1nncc1CNC(=O)c1cc2ccccc2oc1=O [N-((1-(2-methylbenzyl)-1H-1,2,3-triazol-5-yl)methyl)-2-oxo-2H-chromene-3-carboxamide (6b)]
[1]
  IC50: > 100 µM
[2]
  IC50: 78.9 µM

## O=C(NCc1cnnn1Cc1ccc(F)cc1)c1cc2ccccc2oc1=O [N-((1-(4-fluorobenzyl)-1H-1,2,3-triazol-5-yl)methyl)-2-oxo-2H-chromene-3-carboxamide (6e)]
[1]
  IC50: > 100 µM
[2]
  IC50: > 100 µM

## COc1cccc2cc(C(=O)NCc3cn(Cc4ccc(Cl)c(Cl)c4)nn3)c(=O)oc12 [N-((1-(3,4-dichlorobenzyl)-1H-1,2,3-triazol-4-yl)methyl)-8-methoxy-2-oxo-2H-chromene-3-carboxamide (6o)]
[1]
  IC50: > 100 µM
[2]
  IC50: 25.5 µM

## O=C(NCc1cn(Cc2ccc(Br)cc2)nn1)c1cc2ccccc2oc1=O [N-((1-(4-bromobenzyl)-1H-1,2,3-triazol-4-yl)methyl)-2-oxo-2H-chromene-3-carboxamide (6k)]
[1]
  IC50: > 100 µM and 75.3 µM

## O=C(NCc1cnnn1Cc1cccc(F)c1)c1cc2ccccc2oc1=O [N-((1-(3-fluorobenzyl)-1H-1,2,3-triazol-5-yl)methyl)-2-oxo-2H-chromene-3-carboxamide (6d)]
[1]
  IC50: > 100 µM
[2]
  IC50: 48.1 µM

## O=C(NCc1cnnn1Cc1ccc(Cl)c(Cl)c1)c1cc2ccccc2oc1=O [N-((1-(3,4-dichlorobenzyl)-1H-1,2,3-triazol-5-yl)methyl)-2-oxo-2H-chromene-3-carboxamide (6i)]
[1]
  IC50: > 100 µM
[2]
  IC50: 16.7 µM

## O=C(NCc1cnnn1Cc1cccc(Cl)c1)c1cc2ccccc2oc1=O [N-((1-(3-chlorobenzyl)-1H-1,2,3-triazol-5-yl)methyl)-2-oxo-2H-chromene-3-carboxamide (6g)]
[1]
  IC50: > 0.1 µM
[2]
  IC50: 92.8 µM

## COc1cccc2cc(C(=O)NCc3cn(Cc4ccccc4C)nn3)c(=O)oc12 [8-Methoxy-N-((1-(2-methylbenzyl)-1H-1,2,3-triazol-4-yl)methyl)-2-oxo-2H-chromene-3-carboxamide (6l)]
[1]
  IC50: > 100 µM
[2]
  IC50: 24.1 µM

## COc1cccc2cc(C(=O)NCc3cn(Cc4cccc(Cl)c4Cl)nn3)c(=O)oc12 [N-((1-(2,3-dichlorobenzyl)-1H-1,2,3-triazol-4-yl)methyl)-8-methoxy-2-oxo-2H-chromene-3-carboxamide (6n)]
[1]
  IC50: > 100 µM
[2]
  IC50: 33.8 µM
